Laboratory results from paper PMC9917099, “The Mycotoxin Patulin Inhibits the Mitochondrial Carnitine/Acylcarnitine Carrier (SLC25A20) by Interaction with Cys136 Implications for Human Health” (International Journal of Molecular Sciences, 2023).

Target: T1, CAC in intact rat liver mitochondria (Rattus norvegicus, UniProt P97521)
T1 construct: the native protein extracted from rat liver mitochondria; from tissue; host or cells: rat liver mitochondria (Triton X-100 extract)
T1 sequence (P97521 1-301): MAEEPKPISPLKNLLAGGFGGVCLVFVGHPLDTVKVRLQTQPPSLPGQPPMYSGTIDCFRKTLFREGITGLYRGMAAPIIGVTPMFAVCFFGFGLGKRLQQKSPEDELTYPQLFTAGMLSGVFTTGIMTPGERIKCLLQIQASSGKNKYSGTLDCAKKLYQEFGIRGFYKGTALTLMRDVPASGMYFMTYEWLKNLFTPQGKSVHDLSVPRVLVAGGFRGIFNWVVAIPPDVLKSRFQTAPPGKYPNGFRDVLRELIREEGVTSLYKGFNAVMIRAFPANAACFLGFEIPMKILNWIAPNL
Assay: Treatment of intact rat liver mitochondria, then solubilization, reconstitution in proteoliposomes and carnitine antiport assay
Type: biochemical
Conditions: GSH alone, 5 mM, 60 min, intact mitochondria
Procedure: Figure 1 Effect of Patulin on the native carnitine/acylcarnitine carrier (CAC). (A) Dose-response analysis of proteoliposomes reconstituted with the CAC extracted from rat liver mitochondria (0.3 mg of total proteins) and incubated with PAT at the indicated concentrations for 30 min, before measuring the transport activity by adding 0.1 mM [^3H] carnitine for 10 min as described in Materials and Methods. The percentage of residual activity compared to control, without PAT treatment, is reported. The values are the means ± SD from three independent experiments. (B) Rat liver mitochondria (5 mg/100 μL) were incubated or not (control) for 60 min, with Patulin (60 μM) or GSH (5 mM) as indicated. Upon treatment, the unreacted drug was removed by washing the mitochondria in PBS 1X and then 0.3 mg mitochondria were solubilized by 3% TX-100, 10 mM PIPES pH 7.0 and reconstituted in proteoliposomes for transport assay as indicated in (A) and Materials and Methods. Black and white bars indicate without or with the addition of 5 mM dithioerythritol (DTE) 1 min before the transport assay to aliquots of each sample.
The effect of PAT on the CAC at 60 µM concentration was also detected in intact rat liver mitochondria. Upon treatment (60 min), the mitochondria were solubilized in Triton X-100 and 0.3 mg of mitochondrial extract were reconstituted in proteoliposomes for testing the transport activity of CAC (see above). […] Aliquots of intact mitochondria incubated with PAT were treated also with reduced GSH to verify whether this physiological SH-reducing agent was able to reverse the mycotoxin-protein interactions.
The recombinant CAC proteins were reconstituted in proteoliposomes as previously described. Rat liver mitochondria after purification, using the standard procedure of cell disruption and differential centrifugation were solubilized with 3% Triton X-100 in a PIPES buffer (10 mM) at pH 7.0. Herein, the mitochondrial extract (0.3 mg) were reconstituted in the liposomes as above described for the mitochondrial CAC recombinant protein, in the absence of reducing agents. The concentration of intraliposomal carnitine was 15 mM in all samples.
For the transport assay, 550 μL of proteoliposomes were passed through a Sephadex G-75 column in order to remove the external substrate. Six hundred μL of the turbid eluate were collected, divided into samples of 100 μL each, and used for transport measurement by the inhibitor-stop method. Transport was started as homoexchange by adding 0.1 mM [^3H]-carnitine to proteoliposomes containing 15 mM carnitine and, at the indicated time interval, stopped by 1.5 mM NEM (N-ethylmaleimide). The inhibitor was added together with the labelled substrate at time zero in the control samples. After finishing the transport reaction, the external radiolabel substrate was removed by gel filtration chromatography (Sephadex G-75), and the intraliposomal radioactivity was measured by liquid scintillation. Transport was measured at 25 °C. The experimental values were corrected by subtracting the controls. Transport rates were measured in 10 min, i.e., within the initial linear range of the time course.

N[C@@H](CCC(=O)N[C@@H](CS)C(=O)NCC(=O)O)C(=O)O [GSH, glutathione, reference compound]
transport activity compared to control: moderate increase
